Assay results as given in publication PMC9306553 (Angewandte Chemie (International Ed. in English), 2022).

T1: CCR9 (Homo sapiens, UniProt P51686)
T1 sequence (P51686 1-357 isoform P51686-2): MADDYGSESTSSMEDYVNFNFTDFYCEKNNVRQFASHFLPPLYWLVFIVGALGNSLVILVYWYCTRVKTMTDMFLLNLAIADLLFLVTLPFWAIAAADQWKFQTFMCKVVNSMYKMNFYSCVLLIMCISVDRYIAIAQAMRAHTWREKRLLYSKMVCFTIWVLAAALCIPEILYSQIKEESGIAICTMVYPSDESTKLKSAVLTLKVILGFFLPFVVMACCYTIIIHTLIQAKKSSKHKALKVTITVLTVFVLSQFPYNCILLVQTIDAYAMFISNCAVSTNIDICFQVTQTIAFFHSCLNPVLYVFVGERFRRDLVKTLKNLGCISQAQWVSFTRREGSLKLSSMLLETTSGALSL

T2: CCR9 (Homo sapiens, UniProt P51686)
T2 sequence (P51686 1-369): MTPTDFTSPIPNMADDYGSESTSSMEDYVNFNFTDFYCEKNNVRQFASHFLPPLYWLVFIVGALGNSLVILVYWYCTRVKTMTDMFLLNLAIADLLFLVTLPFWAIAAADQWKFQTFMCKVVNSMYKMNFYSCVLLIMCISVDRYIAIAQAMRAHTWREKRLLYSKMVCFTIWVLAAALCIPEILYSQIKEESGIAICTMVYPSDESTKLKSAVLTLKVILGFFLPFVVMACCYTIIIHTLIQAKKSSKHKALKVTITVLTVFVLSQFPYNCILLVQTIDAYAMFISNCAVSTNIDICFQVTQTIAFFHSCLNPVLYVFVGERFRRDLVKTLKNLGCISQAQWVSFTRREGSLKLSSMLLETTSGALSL

T3: CCR2 (Homo sapiens, UniProt P41597)
T3 sequence (P41597 1-360 isoform P41597-2): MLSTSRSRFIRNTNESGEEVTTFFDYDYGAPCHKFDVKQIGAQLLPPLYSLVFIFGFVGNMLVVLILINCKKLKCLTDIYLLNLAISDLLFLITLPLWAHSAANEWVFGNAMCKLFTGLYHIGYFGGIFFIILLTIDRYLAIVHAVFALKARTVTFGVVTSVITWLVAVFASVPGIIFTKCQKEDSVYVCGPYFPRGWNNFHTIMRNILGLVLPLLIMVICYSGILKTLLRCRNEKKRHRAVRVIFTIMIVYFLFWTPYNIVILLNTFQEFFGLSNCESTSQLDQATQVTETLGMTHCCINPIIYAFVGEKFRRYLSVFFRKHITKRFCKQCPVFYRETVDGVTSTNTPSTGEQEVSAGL


What was measured:
CCR9 [1] = molecular target: T1, CCR9; experiment: biochemical; assay type: binding; details: CCR9_Nluc membranes; for Ki: tracer 3a 100 nM
CCR9 [2] = molecular target: T1, CCR9; experiment: cell-based; details: tracer 3a 120 nM, live HEK293T cells expressing CCR9_Nluc
CCR9 [3] = molecular target: T1, CCR9; experiment: cell-based; details: HEK293T cells, stimulated with CCL25 31.6 nM
CCR9 [4] = molecular target: T2, CCR9; experiment: cell-based; assay type: cell-based; details: for IC50: IC50 β-arrestin2 recruitment, HEK293T cells, stimulated with CCL25 31.6 nM
CCR9 [5] = molecular target: T1, CCR9; assay type: cell-based; details: for effect on the CCR9 degradation by 13 (ELISA): co-treatment with 13, HEK293T cells transiently expressing CCR9
CCR2 = molecular target: T3, CCR2; experiment: BRET-based G protein activation assay, CCR2; assay type: cell-based; details: stimulated with CCL2 10 nM
[6] = pKi NanoBRET (membranes), mean±SEM
[7] = pKi NanoBRET (in cells), mean±SEM

Molecule | Ki (CCR9 [1]; Ki NanoBRET (membranes)) [µM] | Ki (CCR9 [1]; [6]) [µM] | Ki (CCR9 [2]; Ki NanoBRET (in cells)) [µM] | Ki (CCR9 [2]; [7]) [µM] | IC50 (CCR9 [3]; IC50 Gαo activation) [µM] | IC50 (CCR9 [3]; pIC50 Gαo activation, mean±SEM) [µM] | IC50 (CCR9 [4]) [µM] | effect on the CCR9 degradation by 13 (ELISA) (CCR9 [5]) | further results
NS(=O)(=O)OC[C@@H]1C[C@@H](n2ccc3c(N[C@H]4CCc5ccccc54)ncnc32)C[C@@H]1O [MLN4924] | – | – | – | – | – | – | – | can be reduced | –
Cc1ncsc1-c1ccc(CNC(=O)[C@@H]2C[C@@H](O)CN2C(=O)[C@@H](N)C(C)(C)C)cc1 [(S,R,S)‐AHPC] | – | – | – | – | – | – | – | can be counteracted | effect on CCR9 levels (ELISA) (CCR9 [5]; HEK293T cells transiently expressing CCR9, 14 h treatment): did not result in reduction of CCR9 levels
CC(C)(C)c1ccc(S(=O)(=O)Nc2ccc(Cl)cc2-c2cncnc2N)cc1 [compound 12] | – | – | – | – | – | – | – | – | increase in potency compared to 1, β-arrestin recruitment (CCR9 [4]; 12 versus 1): ≈ 10 fold; inhibition of CCR2 (G protein activation) (CCR2): no inhibition
CCL25: orthosteric CCR9 agonist (protein, UniProt O15444 24-150, looked up) C-C motif chemokine 25: QGVFEDCCLAYHYPIGWAVLRRAWTYRIQEVSGSCNLPAAIFYLPKRHRKVCGNPKSREVQRAMKLLDARNKVFAKLHHNTQTFQAGPHAVKKLSSGNSKLSSSKFSNPISSSKRNVSLLISANSGL | – | – | – | – | – | – | – | – | effect on the binding of 3a to the IABS (CCR9 [1]; 3a 100 nM, prevented binding and displacement setup): did not affect the binding

Now from value to molecule, other results behind:

Ki (CCR9 [1]; Ki NanoBRET (membranes)) [µM] | Ki (CCR9 [1]; [6]) [µM] | Ki (CCR9 [2]; Ki NanoBRET (in cells)) [µM] | Ki (CCR9 [2]; [7]) [µM] | IC50 (CCR9 [3]; IC50 Gαo activation) [µM] | IC50 (CCR9 [3]; pIC50 Gαo activation, mean±SEM) [µM] | IC50 (CCR9 [4]) [µM] | effect on the CCR9 degradation by 13 (ELISA) (CCR9 [5]) | Molecule | further results
0.013 | 0.0123 | 0.0205 | 0.0191 | 0.256 | 0.257 | 0.166 | – | CC(C)(C)c1ccc(S(=O)(=O)Nc2ccc(Cl)cc2-c2cccnc2N)cc1 [compound 11] | –
0.00351 | 0.00324 | 0.0115 | 0.0105 | 0.0149 | 0.0148 | 0.0174 | – | CC(C)(C)c1ccc(S(=O)(=O)Nc2ccc(Cl)cc2-c2nccnc2N)cc1 [compound 10] | –
